Results as given in ChEMBL document CHEMBL1201862, “PubChem BioAssay data set” (2004).
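Following 48 hours of exposure in 96-well plates, responses at five concentrations were used to interpolate endpoints linearly. GI50 is the concentration that inhibits growth by half.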 Activity calls are given as the source filed them. No stated cut-off is given here; in the data, active = GI50 up to about 1.1 µM and inactive = higher.

Legend:
Experiment in all cases: NCI tumour cell line growth inhibition, 48 h
HOP-62 = system: HOP-62
RXF 393 = system: RXF 393
MOLT-4 = system: MOLT-4
A549 = system: A549
UO-31 = system: UO-31
SK-MEL-28 = system: SK-MEL-28
HCT-15 = system: HCT-15
HL-60 = system: HL-60
LOX IMVI = system: LOX IMVI
U-251 = system: U-251
SR = system: SR
OVCAR-8 = system: OVCAR-8
LXFL 529 = system: LXFL 529
Malme-3M = system: Malme-3M
SK-OV-3 = system: SK-OV-3
Hs-578T = system: Hs-578T
T47D = system: T47D
MCF7 = system: MCF7
NCI/ADR-RES = system: NCI/ADR-RES
MDA-N = system: MDA-N

| Compound | GI50 (HOP-62) | GI50 (RXF 393) | GI50 (MOLT-4) | GI50 (A549) | GI50 (UO-31) | GI50 (SK-MEL-28) | GI50 (HCT-15) | GI50 (HL-60) | GI50 (LOX IMVI) | GI50 (U-251) | GI50 (SR) | GI50 (OVCAR-8) | GI50 (LXFL 529) | GI50 (Malme-3M) | GI50 (SK-OV-3) | GI50 (Hs-578T) | GI50 (T47D) | GI50 (MCF7) | GI50 (NCI/ADR-RES) | GI50 (MDA-N) |
| --- | --- | --- | --- | --- | --- | --- | --- | --- | --- | --- | --- | --- | --- | --- | --- | --- | --- | --- | --- | --- |
| NC(=O)c1ncn(C2OC(CO)C(O)C2O)c1O (configuration not stated) | > 100 µM (inactive) | > 100 µM (inactive) | 72.1 µM (inactive) | > 100 µM (inactive) | 61.9 µM (inactive) | > 100 µM (inactive) | 65.2 µM | 50.2 µM (inactive) | > 100 µM (inactive) | > 100 µM (inactive) | 69 µM (inactive) | > 100 µM (inactive) | > 100 µM (inactive) | > 100 µM (inactive) |  |  |  |  |  |  |
| CCN(CC)C(=S)N/N=C(\C)c1ccccc1O | 34.6 µM (inactive) | 25.6 µM (inactive) | 8.59 µM (inactive) | 11.4 µM (inactive) | 14.3 µM (inactive) | 23.4 µM (inactive) | 3.72 µM | 22.6 µM (inactive) | 15.5 µM (inactive) | 16.9 µM (inactive) | 8.13 µM (inactive) | 19.5 µM (inactive) | 13.5 µM (inactive) | 26.4 µM (inactive) | 33.7 µM (inactive) |  |  |  |  |  |
| Nc1ccc(C(=O)N/C(=C\C=C\c2ccco2)c2nc3c4c(ccc3[nH]2)C(=O)c2ccccc2C4=O)cc1 | 56.2 µM (inactive) | 25.2 µM (inactive) | 3.67 µM (inactive) | 21 µM (inactive) | 2.34 µM (inactive) | 36.6 µM (inactive) | 31.9 µM |  | 25.5 µM (inactive) | 31.3 µM (inactive) |  | 32.2 µM (inactive) | 49.1 µM (inactive) | 85.9 µM (inactive) | 21.7 µM (inactive) |  |  |  |  |  |
| CCCCCCCCCCCCOC(=N)N1CCOCC1 | 17.3 µM (inactive) | 8.99 µM (inactive) | 2 µM (inactive) | 15.8 µM (inactive) | 13.5 µM (inactive) | 12.2 µM (inactive) | 4.08 µM | 1.55 µM (inactive) | 14.5 µM (inactive) | 9.46 µM (inactive) | 1.56 µM (inactive) | 16.4 µM (inactive) | 4.06 µM (inactive) | 19 µM (inactive) | 17 µM (inactive) |  |  |  |  |  |
| COC(=O)C(=O)C(C#N)c1ccc(Cl)c(Cl)c1 (configuration not stated) |  |  | > 100 µM (inactive) | > 100 µM (inactive) | > 100 µM (inactive) | > 100 µM (inactive) | > 100 µM | > 100 µM (inactive) | > 100 µM (inactive) | > 100 µM (inactive) | > 100 µM (inactive) |  | > 100 µM (inactive) | > 100 µM (inactive) | > 100 µM (inactive) |  |  |  |  |  |
| NC(CCCCN/C=C1/N=C(c2ccccc2)OC1=O)C(=O)O (configuration not stated) | > 100 µM (inactive) | > 100 µM (inactive) | > 100 µM (inactive) | > 100 µM (inactive) | > 100 µM (inactive) | > 100 µM (inactive) | > 100 µM | > 100 µM (inactive) | > 100 µM (inactive) | > 100 µM (inactive) | > 100 µM (inactive) | > 100 µM (inactive) | > 100 µM (inactive) | > 100 µM (inactive) | > 100 µM (inactive) |  |  |  |  |  |
| CC(C)c1cccc(C(C)C)c1NC(=O)C(=O)Cc1nc2ccc([N+](=O)[O-])cc2nc1O |  | > 100 µM (inactive) | 74.1 µM (inactive) | 53.6 µM (inactive) | > 100 µM (inactive) | 86.1 µM (inactive) | 9.31 µM | > 100 µM (inactive) | 23.2 µM (inactive) |  |  |  | 28.2 µM (inactive) | > 100 µM (inactive) | > 100 µM (inactive) |  |  |  |  |  |
| C/C(=N\NC(=N)N)C(CN(CC(C)C)CC(C)C)C(=O)Nc1ccc(C)cc1C (configuration not stated) | > 100 µM (inactive) | > 100 µM (inactive) | > 100 µM (inactive) | > 100 µM (inactive) | 54.7 µM (inactive) | > 100 µM (inactive) | > 100 µM | 91.8 µM (inactive) | > 100 µM (inactive) | > 100 µM (inactive) | > 100 µM (inactive) | > 100 µM (inactive) | > 100 µM (inactive) | > 100 µM (inactive) | > 100 µM (inactive) |  |  |  |  |  |
| COC(=O)NC(=O)c1cn(C2OC(CO)C(O)C2O)c(=O)[nH]c1=O (configuration not stated) | > 100 µM (inactive) |  | > 100 µM (inactive) | > 100 µM (inactive) | > 100 µM (inactive) | > 100 µM (inactive) | > 100 µM | > 100 µM (inactive) | > 100 µM (inactive) | > 100 µM (inactive) | > 100 µM (inactive) | > 100 µM (inactive) | > 100 µM (inactive) | > 100 µM (inactive) | > 100 µM (inactive) |  |  |  |  |  |
| CN(C)CCNC(=O)c1c2ccccc2cc2ccccc12 | 55.7 µM (inactive) | 25.3 µM (inactive) | 3.99 µM (inactive) | 34.6 µM (inactive) | 26.2 µM (inactive) | 25.5 µM (inactive) | 36 µM | 25.4 µM (inactive) | 13.5 µM (inactive) | 41.3 µM (inactive) | 0.473 µM (active) | 38.1 µM (inactive) | 26.2 µM (inactive) | 34.1 µM (inactive) | > 100 µM (inactive) |  |  |  |  |  |
| NNC(=O)C(=O)N/N=C(\CCC(=O)Nc1ccc(Cl)cc1)Cc1nc2ccccc2s1 | 53.2 µM (inactive) | 17.2 µM (inactive) | 18.5 µM (inactive) | 45.4 µM (inactive) | 11.9 µM (inactive) | 71.8 µM (inactive) | 19.1 µM | 4.34 µM (inactive) | 17.7 µM (inactive) | 18.8 µM (inactive) | 11.9 µM (inactive) | > 100 µM (inactive) | 26.4 µM (inactive) | 44.7 µM (inactive) | 27.3 µM (inactive) |  |  |  |  |  |
| O=C(N/C(=C\c1ccc([N+](=O)[O-])cc1)c1nc2c(O)nc(S)nc2[nH]1)c1ccccc1 |  | > 100 µM (inactive) | 88.7 µM (inactive) | > 100 µM (inactive) | 30.8 µM (inactive) | > 100 µM (inactive) | > 100 µM |  |  | > 100 µM (inactive) | > 100 µM (inactive) | > 100 µM (inactive) | 65.2 µM (inactive) | > 100 µM (inactive) | > 100 µM (inactive) |  |  |  |  |  |
| O=C1CCCC2=C(N1)C(=O)C=CC2=O | 44.4 µM (inactive) | 45 µM (inactive) | 12.3 µM (inactive) | > 63.1 µM (inactive) | 43.7 µM (inactive) | 45.4 µM (inactive) | 42.2 µM | 8.61 µM (inactive) | > 53.5 µM (inactive) | 43.8 µM (inactive) | 24.4 µM (inactive) | 47.4 µM (inactive) | > 58.7 µM (inactive) | 39.4 µM (inactive) | > 100 µM (inactive) | 29 µM (inactive) | 22 µM (inactive) | 18.8 µM (inactive) | 26.8 µM (inactive) | 16.8 µM (inactive) |
| c1ccc(C2=NN(c3ccccc3)C3(S2)SC(c2ccccc2)(c2ccccc2)c2ccccc23)cc1 (configuration not stated) | > 100 µM (inactive) |  | > 100 µM (inactive) | > 100 µM (inactive) | > 100 µM (inactive) | > 100 µM (inactive) | > 100 µM | 0.804 µM (active) | > 100 µM (inactive) | > 100 µM (inactive) |  | > 100 µM (inactive) | > 100 µM (inactive) | > 100 µM (inactive) | > 100 µM (inactive) |  |  |  |  |  |
| CCOC(CN(C)C(=O)Nc1cccc2ccccc12)OCC | > 10 µM (inactive) | > 10 µM (inactive) | > 10 µM (inactive) | > 10 µM (inactive) | > 10 µM (inactive) | > 10 µM (inactive) | > 10 µM | > 10 µM (inactive) | > 10 µM (inactive) | > 10 µM (inactive) | > 10 µM (inactive) | > 10 µM (inactive) |  | > 10 µM (inactive) | > 10 µM (inactive) | > 10 µM (inactive) | > 10 µM (inactive) | > 10 µM (inactive) | > 10 µM (inactive) | > 10 µM (inactive) |
| OCCN(CCO)c1cccc(N(CCO)CCO)c1 | > 100 µM (inactive) | > 100 µM (inactive) | > 100 µM (inactive) | > 100 µM (inactive) | 28.6 µM (inactive) | > 100 µM (inactive) | > 100 µM | > 100 µM (inactive) | > 100 µM (inactive) | > 100 µM (inactive) | > 100 µM (inactive) | > 100 µM (inactive) | > 100 µM (inactive) |  | > 100 µM (inactive) |  |  |  |  |  |
| O=c1c2ccccc2c(=O)n2n1-c1cccc(c1)CSSCc1cccc-2c1 | > 10 µM (inactive) | > 100 µM (inactive) | > 10 µM (inactive) | > 10 µM (inactive) | > 10 µM (inactive) | > 10 µM (inactive) | > 10 µM |  | > 100 µM (inactive) | 92 µM (inactive) | > 10 µM (inactive) | > 10 µM (inactive) | > 10 µM (inactive) | > 10 µM (inactive) | 52.8 µM (inactive) |  |  |  |  |  |
| O=C(CC1C(=O)Nc2ccccc2[S+]1[O-])Nc1ccc(Cl)cc1 (configuration not stated) | 33.7 µM (inactive) |  | 50.2 µM (inactive) | > 100 µM (inactive) | 35.1 µM (inactive) | > 100 µM (inactive) | > 100 µM | 46.9 µM (inactive) | > 100 µM (inactive) | 35.7 µM (inactive) | 32.4 µM (inactive) | 32.7 µM (inactive) | 91.8 µM (inactive) | 98.2 µM (inactive) | 30.1 µM (inactive) |  |  |  |  |  |
| COc1cc(C2c3cc4c(cc3[C@@H](Nc3ccc([N+](=O)[O-])cc3)C3COC(=O)[C@H]23)OCO4)cc(OC)c1O (some centres not stated) | 0.321 µM (active) | 2.02 µM (inactive) | 0.0171 µM (active) |  | 1.52 µM (inactive) | 3.84 µM (inactive) | 2.87 µM | 0.263 µM (active) | 0.459 µM (active) | 0.631 µM (active) | 0.0552 µM (active) | 1.83 µM (inactive) | 6.4 µM (inactive) | 2.01 µM (inactive) | 1.54 µM (inactive) |  |  | 0.615 µM (active) | 3.39 µM (inactive) | 4.09 µM (inactive) |
